# How the values were obtained:
# PPARγ = molecular target: T1, PPARγ (Homo sapiens, UniProt P37231); test: PPARγ CALUX reporter gene assay; type: cell-based; set-up: key: –: no effect observed up to the highest test concentration; settings: PC10, 24 h exposure
# T1 construct: expression construct for the full-length human receptor under investigation; expressed in transfected cells; host or cells: human U2-OS cells (ATCC HTB-96), stably transfected
# T1 sequence (P37231 1-505): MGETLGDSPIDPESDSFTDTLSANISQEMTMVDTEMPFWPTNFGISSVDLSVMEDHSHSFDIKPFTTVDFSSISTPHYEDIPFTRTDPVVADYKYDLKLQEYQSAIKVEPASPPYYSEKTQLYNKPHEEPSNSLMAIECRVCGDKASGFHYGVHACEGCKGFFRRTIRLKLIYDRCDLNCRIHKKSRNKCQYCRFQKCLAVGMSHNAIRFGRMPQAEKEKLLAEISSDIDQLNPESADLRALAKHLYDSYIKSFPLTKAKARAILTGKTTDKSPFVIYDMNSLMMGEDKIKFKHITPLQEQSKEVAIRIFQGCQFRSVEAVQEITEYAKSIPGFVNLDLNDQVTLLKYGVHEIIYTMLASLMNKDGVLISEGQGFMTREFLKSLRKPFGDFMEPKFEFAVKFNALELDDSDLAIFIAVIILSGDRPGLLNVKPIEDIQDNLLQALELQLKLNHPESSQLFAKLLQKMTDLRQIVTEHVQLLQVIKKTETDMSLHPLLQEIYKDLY
# Description: 2-methylimidazole 99.0%, zinc(II) nitrate hexahydrate ≥99.0%, para-cymene 99.0%, 1,4-dioxane 99.8% (anhydrous), 4-nitroaniline ≥99.0%, 1-octanol ≥99.0%, diglyme ≥99.0%, DMSO-d6 (99.8% D) and chloroform-d (99.8% D) were purchased from Sigma-Aldrich. Toluene ≥99.0%, hexane ≥99.5%, DCM ≥99.5%, chloroform ≥99.5%, DMSO ≥99.0% were purchased from VWR. N,N-diethyl-4-nitroaniline ≥98.0% was purchased from Alfa Aeser. Cyrene was supplied by Circa group. N-butylpyrrolidinone was supplied by Eastman chemicals. N,N-dimethylformamide 99.9% and N,N-dimethylacetamide 99.9% were purchased from Fischer. The flakes of Ultrason® E3020 P Polyarylethersulfone of 55,000 Da were obtained from INGE.BASF, Germany. The CALUX cell lines have been described previously.[1] They are based on human U2-OS cells (ATCC, HTB-96) stably transfected with an expression construct for the full-length human receptor under investigation, and a reporter construct consisting of multimerized responsive elements for the cognate receptor coupled to a minimal promoter element (TATA) and a luciferase gene. Cells were maintained as described previously,[2] using cell culture media and supplements from Fisher Scientific as described in the experimental procedures section. […]
# (§1) In vitro reporter gene assays
# (§2) The automated CALUX assays were carried out similarly as described earlier,[12] with some adaptations. In brief, the assay was performed in CO2 independent medium (Fisher Scientific, […]
# (§3) supplement (Fisher Scientific, 11574466), 10 U/mL penicillin and 10 µg/mL streptomycin. A cell suspension in assay medium was made of 1 × 10^5cells/mL, and white 384-wells plates were seeded with 30 µl cell suspension/well. After 24 h, exposure medium was prepared. A dilution series in 0.5log unit increments of each test compound (in DMSO) was added to a 96-wells plate containing assay medium (2% v/v). Of this exposure mixture, 30 µl was added to the assay plates containing the CALUX cells, resulting in a final DMSO concentration of 1%. Additionally, DMSO blanks and a full dose response curve of the relevant reference compound were included on each plate. All samples were tested in triplicate. The preparation of the compound dilution series as well as the exposure of the cells were performed on a Hamilton StarLET liquid handling robot coupled to a Cytomat incubator.
# (§4) Directly after exposure, plates were sealed with non-breathing plate seals (Plate sealer, easy seal transparent; Greiner-Bio-One, 676001). After 24 h the exposure medium was removed using an EL406 washer-dispenser (BioTek) and 10 µl/well triton lysisbuffer was added by the EL406.
# Subsequently, the luciferase signal was measured in a luminometer (InfinitePro coupled to a Connect Stacker, both TECAN). In order to be able to detect receptor antagonism, several assays were also performed in antagonistic mode. […]
# The luminometer data was analysed as follows; the average of the triplicate wells was determined, and the average blank (DMSO) value was subtracted. […] For antagonist- and cytotoxicity experiments, PC20 values were determined instead, which was defined as the concentration where the test compound causes a 20% decrease in the basal signal, which was […]
# (§5) curve, the signal induction above background (DMSO) was determined, and the concentration where the compound elicited a 1.5-fold increase above background was used as LEC.
# PXR = molecular target: T2, PXR (Homo sapiens, UniProt O75469); test: PXR CALUX reporter gene assay; type: cell-based; set-up: key: –: no effect observed up to the highest test concentration; settings: PC10, 24 h exposure
# T2 construct: expression construct for the full-length human receptor under investigation; expressed in transfected cells; host or cells: human U2-OS cells (ATCC HTB-96), stably transfected
# T2 sequence (O75469 1-434): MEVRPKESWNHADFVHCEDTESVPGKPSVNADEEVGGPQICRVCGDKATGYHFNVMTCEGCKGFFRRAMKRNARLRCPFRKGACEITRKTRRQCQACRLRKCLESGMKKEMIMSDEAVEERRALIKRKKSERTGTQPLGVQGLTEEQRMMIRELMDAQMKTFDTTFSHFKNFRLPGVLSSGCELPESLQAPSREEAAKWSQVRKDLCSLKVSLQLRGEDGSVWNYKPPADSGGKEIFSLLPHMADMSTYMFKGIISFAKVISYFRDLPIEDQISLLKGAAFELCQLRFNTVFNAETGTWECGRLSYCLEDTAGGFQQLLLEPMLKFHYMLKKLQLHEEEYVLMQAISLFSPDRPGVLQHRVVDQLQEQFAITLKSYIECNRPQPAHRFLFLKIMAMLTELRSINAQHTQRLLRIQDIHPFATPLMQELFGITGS
# Description: PXR activation leads to the induction of metabolic enzymes, resulting in enhanced metabolism of a wide range of compounds. […]
# Polyarylethersulfone of 55,000 Da were obtained from INGE.BASF, Germany. The CALUX cell lines have been described previously.[1] They are based on human U2-OS cells (ATCC, HTB-96) stably transfected with an expression construct for the full-length human receptor under investigation, and a reporter construct consisting of multimerized responsive elements for the cognate receptor coupled to a minimal promoter element (TATA) and a luciferase gene. Cells were maintained as described previously,[2] using cell culture media and supplements from Fisher Scientific as described in the experimental procedures section. […]
# as §1, §2, §3, §4
# Subsequently, the luciferase signal was measured in a luminometer (InfinitePro coupled to a Connect Stacker, both TECAN). In order to be able to detect receptor antagonism, several assays were also performed in antagonistic mode. The assay procedure was as described above, with the only exception that the EC50 concentration of the reference agonist was present during the exposure.
# The luminometer data was analysed as follows; the average of the triplicate wells was determined, and the average blank (DMSO) value was subtracted. For receptor-based assays the maximum response elicited by the reference compound was set to 100% (full receptor- or pathway activation), and the other values were scaled accordingly. GraphPad Prism was used to fit a sigmoidal curve through the data (four parameters, variable slope). […] For antagonist- and cytotoxicity experiments, PC20 values were determined instead, which was defined as the concentration where the test compound causes a 20% decrease in the basal signal, which was […]
# as §5
structure (smiles),measurement,setting,value
"CCCCN1CCCC1=O [NBP, N‐Butylpyrrolidinone, reference compound]",LEC PPARγ,PPARγ,–
same,LEC PXR,PXR,−3.2 Log M
"CCCCN(CCCC)C(=O)CCC(=O)N(CCCC)CCCC [TBSA, N,N,N′,N′‐tetrabutylsuccindiamide]",LEC PPARγ,PPARγ,–
same,LEC PXR,PXR,−6.1 Log M
"CN1CCCC1=O [NMP, N‐methyl‐2‐pyrrolidone, reference compound]",LEC PPARγ,PPARγ,–
same,LEC PXR,PXR,–
"CCCCN(CC)C(=O)CCC(=O)N(CC)CCCC [EBSA, N,N′‐diethyl‐N,N′‐dibutylsuccindiamide]",LEC PPARγ,PPARγ,–
same,LEC PXR,PXR,−5.0 Log M
"CCCCN(C)C(=O)CCC(=O)N(C)CCCC [MBSA, N,N′‐dimethyl‐N,N′‐dibutylsuccindiamide]",LEC PPARγ,PPARγ,–
same,LEC PXR,PXR,−3.9 Log M

# Source: article PMC7318222, “A Family of Water‐Immiscible, Dipolar Aprotic, Diamide Solvents from Succinic Acid” (Chemsuschem, 2020)
